Source: the supplement of paper PMC6470124

How the values were obtained:
[1] = LC retention time (Atlantis T3, 5-95% MeOH gradient, 0.1% formic acid); higher = more retained / less polar
In short: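 Retention times refer to reference standards measured by liquid chromatography with high-resolution tandem mass spectrometry. Separation was on an Atlantis T3 C18 column (3 × 150 mm, 3 μm) at 0.3 mL/min with a 5 to 95% methanol gradient over 17.5 min, both solvents carrying 0.1% formic acid. Positive and negative electrospray were run separately on a QExactive Plus, and TraceFinder peak integration (5 ppm tolerance, at least three points per peak) was reviewed by hand.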

[2] = absolute recovery over vacuum-assisted evaporative concentration; higher = better recovery; details: enrichment method: VEC
In short: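 Standards were spiked into water samples before concentration, after concentration or not at all; volumes were 6 mL influent, 15 mL effluent and 60 mL surface or nanopure water. Spiking levels were 200 ng/L for nanopure and surface water and 1000 ng/L for wastewater, adjusted by class and compound. After evaporation at 55 °C and 20 mbar to about 0.3 mL, samples were brought to 0.4 mL, centrifuged, given internal standards and analysed by LC-HRMS/MS. Absolute recovery equals (response ratio pre − unspiked)/(post − unspiked) × 100, based on averages of ≥ 2 replicates.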

[3] = absolute recovery over mixed-bed multilayer solid-phase extraction; higher = better recovery; details: enrichment method: SPE
In short: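 Elution from a three-layer mixed-bed cartridge used basic followed by acidic ethyl acetate/methanol, after loading either 1000 mL of unfiltered nanopure water or 100–250 mL of wastewater that had been set to pH 6.5 and glass-fibre filtered. Standards went in before or after extraction, or were left out, at 200 ng/L (water) or 1000 ng/L (wastewater), with class exceptions. Internal standards were added afterwards, and measurement was by liquid chromatography with high-resolution tandem mass spectrometry in both ionisation modes. For absolute recovery, background-corrected response ratios of pre-spiked samples were compared with those of post-spiked samples and averaged over at least two replicates.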

LC retention time [1]	absolute recovery ([2]; wastewater effluent)	absolute recovery ([3]; nanopure water)	absolute recovery ([3]; surface water)	absolute recovery ([3]; wastewater effluent)	absolute recovery ([3]; wastewater influent)	absolute recovery ([2]; wastewater influent)	Compound
13 min	97.9%	77.4%	93.7%	90.8%	96.7%	–	CCC1OC(=O)C(C)C(OC2CC(C)(OC)C(O)C(C)O2)C(C)C(OC2OC(C)CC([NH+](C)C)C2O)C(C)(O)CC(C)C[NH+](C)C(C)C(O)C1(C)O (centres undefined) [Azithromycin]
16.2 min	92%	99.8%	81.6%	93%	–	136%	CCCCOc1cc(C(=O)NCC[NH+](CC)CC)c2ccccc2n1 [Dibucaine]
9.13 min	108%	90.9%	94.9%	90.3%	94.9%	103%	CC[NH+](CC)CCNC(=O)c1cc(S(C)(=O)=O)ccc1OC [Tiaprid]
12.7 min	104%	103%	96.9%	94.2%	88%	113%	CC(C)Nc1nc(O)nc(NC(C)C)n1 [Propazine-2-hydroxy I]
14.2 min	86.7%	79.3%	76.3%	72%	142%	22.6%	O=c1[nH]sc2ccccc12 [Benzisothiazolin-3-on (=BIT)]
13.4 min	105%	78.4%	82.4%	85.9%	87.2%	107%	C=CCOc1ccccc1OCC(O)C[NH2+]C(C)C (centres undefined) [Oxprenolol]
18 min	111%	101%	95%	96.2%	98.7%	101%	COC(=O)c1ccc(CNS(C)(=O)=O)cc1S(=O)(=O)[N-]C(=O)Nc1nc(OC)cc(OC)n1 [Mesosulfuron-methyl]
8.45 min	101%	80.1%	80.6%	77.1%	93.3%	101%	CC[NH+]1CCCC1CNC(=O)c1cc(S(N)(=O)=O)ccc1OC (centres undefined) [Sulpirid]
17.5 min	44.9%	71.7%	87.9%	84.1%	–	101%	CCCCc1oc2ccc(NS(C)(=O)=O)cc2c1C(=O)c1ccc(OCCC[NH+](CCCC)CCCC)cc1 [Dronedaron]
9.37 min	122%	88.2%	–	95.1%	–	88.2%	O=c1ccn(C2OC(CO)C(O)C2(F)F)c(=O)[nH]1 (centres undefined) [2-2-Difluorodeoxyuridin]
11.7 min	109%	82.5%	83%	81.8%	87.2%	106%	CCC[NH2+]C(C)C(=O)Nc1ccccc1C (centres undefined) [Prilocain]
15.6 min	91.2%	94.5%	–	–	–	96.4%	CC(C)(C)c1n[nH]c(=O)n(N)c1=O [Metribuzin-Diketo (=DK)]
19.2 min	95.8%	73.5%	81.4%	76.2%	83.3%	92.8%	O=C([O-])Cc1ccccc1Nc1c(Cl)cc(O)cc1Cl [4-Hydroxydiclofenac A]
20.1 min	89.8%	96.4%	85.1%	85.2%	98.8%	92.3%	Cc1ccc(C(C)NC(=O)C(NC(=O)OC(C)C)C(C)C)cc1 (centres undefined) [Iprovalicarb]
16.2 min	86.4%	82.7%	84.1%	85.4%	122%	116%	Clc1ccc(C(c2ccccc2)N2CC[NH2+]CC2)cc1 (centres undefined) [1-[(4-Chlorophenyl)phenylmethyl]piperazine]
9.66 min	104%	84.8%	81.9%	83.8%	82%	98.7%	c1ccc(C2CN3CCSC3=[NH+]2)cc1 (centres undefined) [Levamisol]
10 min	102%	95.6%	91.3%	87.1%	95.9%	102%	Cc1ncc([N+](=O)[O-])n1CCO [Metronidazol]
13.7 min	79.2%	37.8%	71.7%	61.7%	53.1%	31.6%	C=CC(=O)OCCOC(=O)CCC(=O)[O-] [Mono(2-acryloyloxyethyl)-succinate]
12 min	113%	98.6%	93.8%	89.2%	92.8%	99.5%	CC(=O)Nc1ccc(S(=O)(=O)[N-]c2ncccn2)cc1 [N4-Acetyl-Sulfadiazin]
11.5 min	104%	75.9%	68.2%	74%	74.9%	–	CCn1cc(C(=O)[O-])c(=O)c2cc(F)c(N3CC[NH2+]CC3)cc21 [Norfloxacin]
22.2 min	56.2%	82.7%	66.5%	53.5%	–	–	C=CCC1C=C(C)CC(C)CC(OC)C2OC(O)(C(=O)C(=O)N3CCCCC3C(=O)OC(C(C)=CC3CCC(O)C(OC)C3)C(C)C(O)CC1=O)C(C)CC2OC (centres undefined) [FK-506 (=Tacrolimus)]
11.2 min	101%	97.1%	96.5%	93.5%	95%	99.4%	CC[NH+](CC)CC(=O)Nc1c(C)cccc1C [Lidocain]
14.2 min	98.1%	94.1%	–	96.5%	–	104%	NS(=O)(=O)c1cc(C2(O)NC(=O)c3ccccc32)ccc1Cl (centres undefined) [Chlorthalidon]
22.3 min	87.3%	73.9%	78.4%	76.3%	92.2%	76.6%	CCCC(NOCC)=C1C(=O)CC(C2CCCSC2)CC1=O (centres undefined) [Cycloxydim]
18 min	112%	94.7%	101%	93.3%	111%	98.2%	COc1cc(OC)nc(NC(=O)[N-]S(=O)(=O)N(C)S(C)(=O)=O)n1 [Amidosulfuron]
15.2 min	60.8%	70.4%	75.4%	73.7%	79.4%	65.4%	COc1cccc2c1C(=O)c1c(O)c3c(c(O)c1C2=O)CC(O)(C(O)CO)CC3OC1CC([NH3+])C(O)C(C)O1 (centres undefined) [Doxorubicinol]
18.7 min	104%	96.9%	97.3%	90.7%	92.5%	99.4%	CCOc1nc2cccc(C(=O)[O-])c2n1Cc1ccc(-c2ccccc2-c2nnn[n-]2)cc1 [Candesartan]
21.4 min	112%	89.4%	84%	96.3%	96.4%	109%	CC(C)N(C(=O)CS(=O)(=O)[O-])c1ccc(F)cc1 [Flufenacet-ESA]
12.5 min	105%	75.9%	24.7%	44.2%	60.1%	105%	CCC(CC)OC1C=C(C(=O)[O-])CC([NH3+])C1NC(C)=O (centres undefined) [Oseltamivir-carboxylat]

Compound	LC retention time [1]	absolute recovery ([2]; wastewater effluent)	absolute recovery ([3]; nanopure water)	absolute recovery ([3]; surface water)	absolute recovery ([3]; wastewater effluent)	absolute recovery ([3]; wastewater influent)	absolute recovery ([2]; wastewater influent)
CCCN(CCOc1c(Cl)cc(Cl)cc1Cl)C(=O)n1ccnc1 [Prochloraz]	20.6 min	103%	99.3%	96.4%	93.9%	92.3%	101%
c1cncc(C2CCC[NH2+]2)c1 (centres undefined) [Nornicotine]	4.38 min	111%	65.4%	–	47.9%	43.6%	118%
CN(C)c1nc(=O)n(C2CCCCC2)c(=O)n1C [Hexazinon]	17.2 min	106%	96.4%	93.7%	94.3%	88.8%	92.6%
CCCC(C)C1(CC)C(=O)N=C([S-])NC1=O (centres undefined) [Thiopental]	18.7 min	77.5%	49.9%	83.4%	66.9%	73.1%	82.5%
Cc1ccc(NC(=O)N(C)C)cc1Cl [Chlortoluron]	18.2 min	107%	98%	101%	93%	94.8%	102%
CC=C1[NH+](C)C(C)CC1(c1ccccc1)c1ccccc1 (centres undefined) [EDDP (=2-Ethylidene-1-5-dimethyl-3-3-diphenylpyrrolidin)]	14.4 min	95%	33.8%	65%	60.2%	75.8%	82.3%
CS(=O)(=O)c1cc(C(F)(F)F)ccc1C(=O)c1cnoc1C1CC1 [Isoxaflutole]	18.3 min	74.8%	19.2%	21.8%	22.8%	35.1%	–
O=[N+]([O-])N=C1NCCN1Cc1ccc(Cl)nc1 [Imidacloprid]	13.4 min	103%	97.8%	96.7%	95.4%	91.9%	98.6%
COC=C(C(=O)OC)c1ccccc1COc1cccc(C(F)(F)F)n1 [Picoxystrobin]	20.3 min	94.2%	94.1%	94.9%	99.7%	81.3%	121%
CC(C)N(Cc1ccccc1)C(=O)C(C)(C)C [Tebutam]	20.5 min	52.3%	85.7%	88.7%	81.3%	89.5%	46.1%
CC1COC(Cn2cncn2)(c2ccc(Oc3ccc(Cl)cc3)cc2Cl)O1 (centres undefined) [Difenoconazol]	21.4 min	100%	90.2%	100%	102%	70.9%	126%
Nc1c(Cl)c(F)nc(OCC(=O)[O-])c1Cl [Fluroxypyr (free acid)]	17.1 min	104%	97%	95.8%	91.7%	89.2%	95.6%
COC(=O)c1sccc1S(=O)(=O)[N-]C(=O)Nc1nc(C)nc(OC)n1 [Thifensulfuron-methyl]	16.7 min	104%	98.9%	95%	93.4%	92.3%	114%
CS(=O)(=O)c1ccc(C(=O)[C-]2C(=O)CCCC2=O)c([N+](=O)[O-])c1 [Mesotrion]	16 min	103%	–	96.5%	94.6%	80.1%	103%
CSC1=NC(C)(c2ccccc2)C(=O)N1Nc1ccccc1 (centres undefined) [Fenamidone]	19.2 min	106%	100%	107%	101%	91.6%	98.7%
CC1(C)CCC(Cc2ccc(Cl)cc2)C1(O)Cn1cncn1 (centres undefined) [Metconazole]	21.3 min	100%	95.9%	108%	94.9%	80.9%	105%
COc1nn(CSP(=S)(OC)OC)c(=O)s1 [Methidathion]	18.8 min	108%	102%	97.9%	96.5%	88.2%	106%
CC(Cc1ccc(C(C)(C)C)cc1)C[NH+]1CCCCC1 (centres undefined) [Fenpropidin]	16.4 min	146%	–	107%	94.1%	67.3%	46.3%
O=C(Nc1ccc(F)cc1F)c1cccnc1Oc1cccc(C(F)(F)F)c1 [Diflufenican]	21.4 min	106%	96.6%	92.4%	88%	87.2%	101%
CC([NH2+]C(C)(C)C)C(=O)c1cccc(Cl)c1 (centres undefined) [Bupropion]	13.5 min	51.1%	79.1%	78%	74.3%	78.3%	31.5%
c1ccc2c(c1)Cc1ccccc1N1CC[NH2+]CC21 (centres undefined) [Normianserin]	14.8 min	94.1%	79.1%	95.2%	83.6%	85.6%	84.1%
Nc1cnn(-c2ccccc2)c(=O)c1Cl [Chloridazon]	14.7 min	104%	97.1%	98.1%	–	96.1%	104%
